From patent publication US8536172B2, “Inhibitors of JNK” (Roche Palo Alto LLC, priority 2009, dated 2013)

How the values were obtained:
[1] = target: Human JNK1α1 (Homo sapiens (Human), UniProt P45983); experiment: JNK assay in vitro: phosphorylation of GST-ATF2 (19-96) with [γ-33P] ATP, JNK1; type: biochemical; settings: 2 nM enzyme, 1 μM ATF2, 6 μM ATP (Km), 30° C. 30 min
Experimental: JNK activity was measured by phosphorylation of GST-ATF2 (19-96) with [γ-^33P] ATP. […] Human JNK2α2 assay contains 1 nM enzyme, 1 μM ATF2, 8 μM ATP with 1 uCi [γ-^33P] ATP. Human JNK1α1 assay contains 2 nM enzyme, 1 μM ATF2, 6 μM ATP with 1 μCi [γ-^33P] ATP. […] ATP. The enzyme assay was carried out in the presence or absence of several compound concentrations. JNK and compound were pre-incubated for 10 min., followed by initiation of the enzymatic reaction by adding ATP and the substrate. The reaction mixture was incubated at 30° C. for 30 min. […] The incorporation of ^33P into ATF2 was quantified on a microplate scintillation counter (Packard Topcount). Compound inhibition potency on JNK was measured by IC50 value generated from ten concentration inhibition curves fitted into the 3-parameter model: % inhibition=Maximum/(1+(IC50/[Inhibitor])^slope). Data were analyzed on Microsoft Excel for parameter estimation.

[2] = target: Human JNK2α2 (Homo sapiens (Human), UniProt P45984); experiment: JNK assay in vitro: phosphorylation of GST-ATF2 (19-96) with [γ-33P] ATP, JNK2; type: biochemical; settings: 1 nM enzyme, 1 μM ATF2, 8 μM ATP (Km), 30° C. 30 min
Chain of Human JNK2α2 (P45984 whole entry): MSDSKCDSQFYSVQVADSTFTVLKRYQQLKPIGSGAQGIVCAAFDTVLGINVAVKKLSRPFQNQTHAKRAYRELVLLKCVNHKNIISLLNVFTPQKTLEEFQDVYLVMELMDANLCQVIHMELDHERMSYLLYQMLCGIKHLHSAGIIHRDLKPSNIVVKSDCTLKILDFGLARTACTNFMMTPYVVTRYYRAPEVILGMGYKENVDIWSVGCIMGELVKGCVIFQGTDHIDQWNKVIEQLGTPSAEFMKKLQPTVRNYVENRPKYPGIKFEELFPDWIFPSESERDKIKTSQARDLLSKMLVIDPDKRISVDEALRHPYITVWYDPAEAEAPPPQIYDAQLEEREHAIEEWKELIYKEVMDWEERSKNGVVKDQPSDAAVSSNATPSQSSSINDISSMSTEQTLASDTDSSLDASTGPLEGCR
Experimental: JNK activity was measured by phosphorylation of GST-ATF2 (19-96) with [γ-^33P] ATP. […] Human JNK2α2 assay contains 1 nM enzyme, 1 μM ATF2, 8 μM ATP with 1 uCi [γ-^33P] ATP. Human JNK1α1 assay contains 2 nM enzyme, 1 μM ATF2, 6 μM ATP with 1 μCi [γ-^33P] ATP. Human JNK3 (Upstate Biotech #14-501M) assay contains 2 nM enzyme, 1 μM ATF2, 4 μM ATP with 1 μCi [γ-^33P] ATP. The enzyme assay was carried out in the presence or absence of several compound concentrations. JNK and compound were pre-incubated for 10 min., followed by initiation of the enzymatic reaction by adding ATP and the substrate. The reaction mixture was incubated at 30° C. for 30 min. At the end of incubation, the reaction was terminated by transferring 25 μl of the reaction mixture to 150 μl of 10% glutathione Sepharose® slurry (Amersham #27-4574-01) containing 135 mM EDTA. The reaction product was captured on the affinity resin, and washed on a filtration plate (Millipore, MABVNOB50) with phosphate buffered saline for six times to remove free radionucleotide. The incorporation of ^33P into ATF2 was quantified on a microplate scintillation counter (Packard Topcount). Compound inhibition potency on JNK was measured by IC50 value generated from ten concentration inhibition curves fitted into the 3-parameter model: % inhibition=Maximum/(1+(IC50/[Inhibitor])^slope). Data were analyzed on Microsoft Excel for parameter estimation.

Chain of Human JNK1α1 (P45983 other isoform, or with tags, fused parts or gaps): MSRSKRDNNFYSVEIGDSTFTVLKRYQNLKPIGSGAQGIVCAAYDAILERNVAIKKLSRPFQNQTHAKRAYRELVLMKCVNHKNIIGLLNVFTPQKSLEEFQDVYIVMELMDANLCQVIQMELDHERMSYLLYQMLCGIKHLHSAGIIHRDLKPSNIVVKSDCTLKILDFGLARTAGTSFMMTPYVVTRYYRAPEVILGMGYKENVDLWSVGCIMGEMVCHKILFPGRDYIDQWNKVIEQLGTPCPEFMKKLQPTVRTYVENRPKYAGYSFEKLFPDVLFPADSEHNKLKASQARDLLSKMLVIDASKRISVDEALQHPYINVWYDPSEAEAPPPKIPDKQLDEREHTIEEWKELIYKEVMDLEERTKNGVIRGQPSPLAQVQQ

IC50 [1]	IC50 [2]	Compound
77.7 nM	477 nM	CS(=O)(=O)N[C@H]1CC[C@H](Nc2nccc(-n3ccc4c(N5CCN(C(=O)CN)CC5)cccc43)n2)CC1 [Compound I-24, N-[4-(4-{4-[4-(2-Amino-acetyl)-piperazin-1-yl]-indol-1-yl}-pyrimidin-2-ylamino)-cyclohexyl]-methanesulfonamide]
10.3 nM	105 nM	CC(=O)N1CCN(c2cccc3c2ccn3-c2ccnc(N[C@H]3CC[C@H](N(C)S(C)(=O)=O)CC3)n2)CC1 [Compound I-5, N-(4-{4-[4-(4-Acetyl-piperazin-1-yl)-indol-1-yl]-pyrimidin-2-ylamino}-cyclohexyl)-N-methyl-methanesulfonamide]
3.7 nM	24.6 nM	CN(C)CCN([C@H]1CC[C@H](Nc2nccc(-n3ccc4c(N5CCN(C(=O)CC#N)CC5)cccc43)n2)CC1)S(C)(=O)=O [Compound I-26, N-[4-(4-{4-[4-(2-Cyano-acetyl)-piperazin-1-yl]-indol-1-yl}-pyrimidin-2-ylamino)-cyclohexyl]-N-(2-dimethylamino-ethyl)-methanesulfonamide]
48.4 nM	4030 nM	CC(=O)N1CCN(c2cccc3c2ccn3-c2ccnc(NC3CCCCC3)n2)CC1 [Compound I-37, 1-{4-[1-(2-Cyclohexylamino-pyrimidin-4-yl)-1H-indol-4-yl]-piperazin-1-yl}-ethanone]
42.9 nM	292 nM	CS(=O)(=O)N[C@H]1CC[C@H](Nc2nccc(-n3ccc4c(N5CCC(O)CC5)cccc43)n2)CC1 [Compound I-4, N-(4-{4-[4-(4-Hydroxy-piperidin-1-yl)-indol-1-yl]-pyrimidin-2-ylamino}-cyclohexyl)-methanesulfonamide]
3.6 nM	20.8 nM	CN(C)S(=O)(=O)N[C@H]1CC[C@H](Nc2nccc(-n3ccc4c(N5CCC(S(C)(=O)=O)CC5)cccc43)n2)CC1 [Compound I-15, [4-{4-[4-(4-Methanesulfonyl-piperidin-1-yl)-indol-1-yl]-pyrimidin-2-ylamino}-cyclohexyl]aminodimethylsulfonamide]
12.4 nM	25.7 nM	CC(=O)N1CCN(c2cccc3c2c(C(N)=O)cn3-c2ccnc(N[C@H]3CC[C@H](O)CC3)n2)CC1 [Compound I-63, 4-(4-Acetyl-piperazin-1-yl)-1-[2-(4-hydroxy-cyclohexylamino)-pyrimidin-4-yl]-1H-indole-3-carboxylic acid amide]
5.8 nM	16.7 nM	CS(=O)(=O)C1CCN(c2cccc3c2cnn3-c2ccnc(N[C@H]3CC[C@H](O)CC3)n2)CC1 [Compound I-66, 4-{4-[4-(4-Methanesulfonyl-piperidin-1-yl)-indazol-1-yl]-pyrimidin-2-ylamino}-cyclohexanol]
3.6 nM	26.4 nM	CC(C)(C)OC(=O)NCC(=O)N1CCN(c2cccc3c2ccn3-c2ccnc(N[C@H]3CC[C@H](NS(C)(=O)=O)CC3)n2)CC1 [Compound I-22, [2-(4-{1-[2-(4-Methanesulfonylamino-cyclohexylamino)-pyrimidin-4-yl]-1H-indol-4-yl}-piperazin-1-yl)-2-oxo-ethyl]-carbamic acid tert-butyl ester]
93.9 nM	654 nM	O[C@H]1CC[C@H](Nc2nccc(-n3ccc4c(N5CCCCC5)cccc43)n2)CC1 [Compound I-2, 4-[4-(4-Piperidin-1-yl-indol-1-yl)-pyrimidin-2-ylamino]-cyclohexanol]
3 nM	23.5 nM	CS(=O)(=O)N[C@H]1CC[C@H](Nc2nccc(-n3ccc4c(N5CCC(S(C)(=O)=O)CC5)cccc43)n2)CC1 [Compound I-6, N-(4-{4-[4-(4-Methanesulfonyl-piperidin-1-yl)-indol-1-yl]-pyrimidin-2-ylamino}-cyclohexyl)-methanesulfonamide]
	15.6 nM	CS(=O)(=O)C1CCN(c2cccc3c2ccn3-c2ccnc(N[C@H]3CC[C@H](C(=O)N4CCN5CCCCC5C4)CC3)n2)CC1 (some centres unmarked) [Compound I-50, (4-{4-[4-(4-Methanesulfonyl-piperidin-1-yl)-indol-1-yl]-pyrimidin-2-ylamino}-cyclohexyl)-(octahydro-pyrido[1,2-a]pyrazin-2-yl)-methanone]
	15.2 nM	CS(=O)(=O)C1CCN(c2cccc3c2ccn3-c2ccnc(N[C@H]3CC[C@H](C(=O)N4CCn5ccnc5C4)CC3)n2)CC1 [Compound I-54, (5,6-Dihydro-8H-imidazo[1,2-a]pyrazin-7-yl)-(4-{4-[4-(4-methanesulfonyl-piperidin-1-yl)-indol-1-yl]-pyrimidin-2-ylamino}-cyclohexyl)-methanone]
	168 nM	N#CCC(=O)O[C@H]1CCC[C@H](Nc2nccc(-n3ccc4c(N5CCN(C(=O)CC#N)CC5)cccc43)n2)C1 [Compound I-36, Cyano-acetic acid (1S,3S)-3-(4-{4-[4-(2-cyano-acetyl)-piperazin-1-yl]-indol-1-yl}-pyrimidin-2-ylamino)-cyclohexyl ester]
	806 nM	N#CCC(=O)N1CCN(c2cccc3c2ccn3-c2ccnc(N[C@H]3CC[C@@H](O)C3)n2)CC1 [Compound I-58, 3-(4-{1-[2-((1S,3R)-3-Hydroxy-cyclopentylamino)-pyrimidin-4-yl]-1H-indol-4-yl}-piperazin-1-yl)-3-oxo-propionitrile]
	35 nM	COCCO[C@H]1CC[C@H](Nc2nccc(-n3ccc4c(N5CCN(C(=O)CC#N)CC5)cccc43)n2)CC1 [Compound I-40, 3-[4-(1-{2-[4-(2-Methoxy-ethoxy)-cyclohexylamino]-pyrimidin-4-yl}-1H-indol-4-yl)-piperazin-1-yl]-3-oxo-propionitrile]
	36 nM	CCN1CCN(C(=O)[C@H]2CC[C@H](Nc3nccc(-n4ccc5c(N6CCC(S(C)(=O)=O)CC6)cccc54)n3)CC2)CC1 [Compound I-46, (4-Ethyl-piperazin-1-yl)-(4-{4-[4-(4-methanesulfonyl-piperidin-1-yl)-indol-1-yl]-pyrimidin-2-ylamino}-cyclohexyl)-methanone]
	29.6 nM	CS(=O)(=O)C1CCN(c2cccc3c2ccn3-c2ccnc(N[C@H]3CC[C@H](C(=O)N4CCN(C5CC5)CC4)CC3)n2)CC1 [Compound I-47, (4-Cyclopropyl-piperazin-1-yl)-(4-{4-[4-(4-methanesulfonyl-piperidin-1-yl)-indol-1-yl]-pyrimidin-2-ylamino}-cyclohexyl)-methanone]
	406 nM	COCCO[C@H]1CC[C@H](Nc2nccc(-n3ccc4c(N5CCN(C(C)=O)CC5)cccc43)n2)CC1 [Compound I-39, 1-[4-(1-{2-[4-(2-Methoxy-ethoxy)-cyclohexylamino]-pyrimidin-4-yl}-1H-indol-4-yl)-piperazin-1-yl]-ethanone]

Compound	IC50 [1]	IC50 [2]
CS(=O)(=O)C1CCN(c2cccc3c2ccn3-c2ccnc(N[C@H]3CC[C@H](C(=O)N4CCn5c(nnc5C(F)(F)F)C4)CC3)n2)CC1 [Compound I-51, (4-{4-[4-(4-Methanesulfonyl-piperidin-1-yl)-indol-1-yl]-pyrimidin-2-ylamino}-cyclohexyl)-(3-trifluoromethyl-5,6-dihydro-8H-[1,2,4]triazolo[4,3-a]pyrazin-7-yl)-methanone]	3.6 nM	6.2 nM
CC(=O)N[C@H]1CC[C@H](Nc2nccc(-n3ccc4c(N5CCC(S(C)(=O)=O)CC5)cccc43)n2)CC1 [Compound I-13, N-(4-{4-[4-(4-Methanesulfonyl-piperidin-1-yl)-indol-1-yl]-pyrimidin-2-ylamino}-cyclohexyl)-acetamide]	6.6 nM	49.3 nM
CC(C)(O)[C@H]1CC[C@H](Nc2nccc(-n3ccc4c(N5CCC(S(C)(=O)=O)CC5)cccc43)n2)CC1 [Compound I-14, 2-(4-{4-[4-(4-Methanesulfonyl-piperidin-1-yl)-indol-1-yl]-pyrimidin-2-ylamino}-cyclohexyl)-propan-2-ol]	3 nM	19.2 nM
N#CCC(=O)N1CCN(c2cccc3c2ccn3-c2ccnc(N[C@H]3CC[C@H](O)CC3)n2)CC1 [Compound I-55, 3-(4-{1-[2-(4-Hydroxy-cyclohexylamino)-pyrimidin-4-yl]-1H-indol-4-yl}-piperazin-1-yl)-3-oxo-propionitrile]	4.4 nM	23.1 nM
